# Data as given in ChEMBL document CHEMBL5291721, “A preclinical secondary pharmacology resource illuminates target-adverse drug reaction associations of marketed drugs” (Nat Commun, 2023).
# What was measured:
# Thromboxane A2 receptor [1] = target: T1, Thromboxane A2 receptor (Homo sapiens, UniProt P21731); type: functional, cell-based
# T1 sequence (P21731 whole entry): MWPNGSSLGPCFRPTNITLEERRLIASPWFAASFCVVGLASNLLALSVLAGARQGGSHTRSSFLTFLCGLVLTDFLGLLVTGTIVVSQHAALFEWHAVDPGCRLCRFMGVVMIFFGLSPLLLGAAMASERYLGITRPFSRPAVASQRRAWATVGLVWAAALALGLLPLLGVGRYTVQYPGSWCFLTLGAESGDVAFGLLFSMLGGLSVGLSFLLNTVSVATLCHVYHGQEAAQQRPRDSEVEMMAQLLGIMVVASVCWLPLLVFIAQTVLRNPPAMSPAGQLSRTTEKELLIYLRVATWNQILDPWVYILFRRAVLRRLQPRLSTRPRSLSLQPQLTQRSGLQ
# Histamine H3 receptor [2] = target: T2, Histamine H3 receptor (Homo sapiens, UniProt Q9Y5N1)
# [3] = target: 3',5'-cyclic-AMP phosphodiesterase 4A (Homo sapiens, UniProt P27815); type: functional
# [4] = target: Sodium-dependent serotonin transporter (Homo sapiens, UniProt P31645)
# [5] = target: T3, Muscarinic acetylcholine receptor M2 (Homo sapiens, UniProt P08172)
# T3 sequence (P08172 whole entry): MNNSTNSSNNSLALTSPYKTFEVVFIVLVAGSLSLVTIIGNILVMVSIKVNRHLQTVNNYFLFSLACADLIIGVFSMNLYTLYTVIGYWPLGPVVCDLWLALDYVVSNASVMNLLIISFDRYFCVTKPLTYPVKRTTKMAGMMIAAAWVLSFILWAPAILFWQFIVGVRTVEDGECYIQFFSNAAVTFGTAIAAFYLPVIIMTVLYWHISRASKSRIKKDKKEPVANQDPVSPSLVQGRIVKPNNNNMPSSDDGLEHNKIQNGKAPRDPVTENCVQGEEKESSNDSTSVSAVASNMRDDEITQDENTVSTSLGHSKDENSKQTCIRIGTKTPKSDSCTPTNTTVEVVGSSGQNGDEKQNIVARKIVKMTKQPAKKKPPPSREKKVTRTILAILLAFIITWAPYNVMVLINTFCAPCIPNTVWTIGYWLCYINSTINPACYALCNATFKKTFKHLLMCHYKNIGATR
# [6] = target: 5-hydroxytryptamine receptor 2B (Homo sapiens, UniProt P41595); type: functional, cell-based
# Acetylcholinesterase = Acetylcholinesterase (Homo sapiens, UniProt P22303); type: functional
# [7] = target: Gamma-aminobutyric acid receptor subunit alpha-1/alpha-2/beta-2/gamma-2 (Homo sapiens, UniProt P14867+P18507+P47869+P47870); type: protein-complex assay
# Histamine H2 receptor = Histamine H2 receptor (Homo sapiens, UniProt P25021); type: functional, cell-based
# Histamine H3 receptor [8] = target: T2, Histamine H3 receptor; remark: listed apart in the source
# [9] = target: 5-hydroxytryptamine receptor 2A (Homo sapiens, UniProt P28223); type: functional, cell-based
# [10] = target: T4, 5-hydroxytryptamine receptor 1A (Homo sapiens, UniProt P08908); type: functional, cell-based
# T4 sequence (P08908 whole entry): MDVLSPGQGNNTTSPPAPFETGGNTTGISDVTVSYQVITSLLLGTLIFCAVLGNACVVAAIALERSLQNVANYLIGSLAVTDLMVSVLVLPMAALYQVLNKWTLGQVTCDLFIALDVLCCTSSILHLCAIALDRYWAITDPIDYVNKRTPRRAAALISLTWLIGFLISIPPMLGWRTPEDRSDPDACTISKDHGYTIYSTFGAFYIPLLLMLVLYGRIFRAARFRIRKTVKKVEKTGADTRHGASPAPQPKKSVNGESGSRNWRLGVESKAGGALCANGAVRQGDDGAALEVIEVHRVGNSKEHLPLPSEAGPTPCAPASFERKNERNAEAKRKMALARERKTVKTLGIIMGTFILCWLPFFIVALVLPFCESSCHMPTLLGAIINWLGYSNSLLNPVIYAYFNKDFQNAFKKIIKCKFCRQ
# [11] = target: T5, Muscarinic acetylcholine receptor M1 (Homo sapiens, UniProt P11229); type: functional
# T5 sequence (P11229 whole entry): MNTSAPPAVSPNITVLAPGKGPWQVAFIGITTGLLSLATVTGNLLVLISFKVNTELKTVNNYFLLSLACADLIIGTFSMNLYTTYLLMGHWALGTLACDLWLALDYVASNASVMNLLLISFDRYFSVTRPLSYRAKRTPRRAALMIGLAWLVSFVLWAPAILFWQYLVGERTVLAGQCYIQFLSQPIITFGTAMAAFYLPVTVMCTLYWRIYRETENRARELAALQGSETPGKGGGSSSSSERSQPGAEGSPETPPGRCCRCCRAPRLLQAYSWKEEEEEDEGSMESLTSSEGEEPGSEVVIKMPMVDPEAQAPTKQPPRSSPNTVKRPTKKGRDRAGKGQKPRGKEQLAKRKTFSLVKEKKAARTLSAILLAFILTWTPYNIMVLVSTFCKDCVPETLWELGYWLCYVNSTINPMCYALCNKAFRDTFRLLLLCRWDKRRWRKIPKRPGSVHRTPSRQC
# Thromboxane A2 receptor [12] = target: T1, Thromboxane A2 receptor
# [13] = target: T6, Alpha-2B adrenergic receptor (Homo sapiens, UniProt P18089)
# T6 sequence (P18089 whole entry): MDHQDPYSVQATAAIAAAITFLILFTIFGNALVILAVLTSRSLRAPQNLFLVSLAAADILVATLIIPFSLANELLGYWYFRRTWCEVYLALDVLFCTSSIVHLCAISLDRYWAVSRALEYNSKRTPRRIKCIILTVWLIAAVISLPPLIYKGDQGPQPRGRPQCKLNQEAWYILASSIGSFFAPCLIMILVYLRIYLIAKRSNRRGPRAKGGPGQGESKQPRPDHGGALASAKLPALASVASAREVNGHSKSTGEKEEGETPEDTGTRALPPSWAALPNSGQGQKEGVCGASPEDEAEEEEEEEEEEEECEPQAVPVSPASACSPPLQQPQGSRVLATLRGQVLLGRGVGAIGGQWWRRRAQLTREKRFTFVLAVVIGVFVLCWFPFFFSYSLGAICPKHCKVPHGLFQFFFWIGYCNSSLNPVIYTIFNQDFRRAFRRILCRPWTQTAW
# Note: assay procedure not described here.
# T2 sequence (Q9Y5N1 whole entry): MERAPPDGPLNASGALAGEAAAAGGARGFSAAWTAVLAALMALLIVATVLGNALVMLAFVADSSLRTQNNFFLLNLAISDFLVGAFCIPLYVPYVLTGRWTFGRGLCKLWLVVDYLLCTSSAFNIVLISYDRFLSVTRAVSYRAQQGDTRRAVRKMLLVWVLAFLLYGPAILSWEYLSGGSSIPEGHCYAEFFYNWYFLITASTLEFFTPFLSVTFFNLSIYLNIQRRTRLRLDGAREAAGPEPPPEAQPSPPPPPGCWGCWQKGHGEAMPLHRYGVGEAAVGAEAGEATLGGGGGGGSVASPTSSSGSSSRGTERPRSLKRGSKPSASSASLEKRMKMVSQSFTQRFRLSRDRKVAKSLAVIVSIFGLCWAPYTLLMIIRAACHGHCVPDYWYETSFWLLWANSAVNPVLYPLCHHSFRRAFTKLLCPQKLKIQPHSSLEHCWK
# Sequence of 5-hydroxytryptamine receptor 2A (P28223 whole entry): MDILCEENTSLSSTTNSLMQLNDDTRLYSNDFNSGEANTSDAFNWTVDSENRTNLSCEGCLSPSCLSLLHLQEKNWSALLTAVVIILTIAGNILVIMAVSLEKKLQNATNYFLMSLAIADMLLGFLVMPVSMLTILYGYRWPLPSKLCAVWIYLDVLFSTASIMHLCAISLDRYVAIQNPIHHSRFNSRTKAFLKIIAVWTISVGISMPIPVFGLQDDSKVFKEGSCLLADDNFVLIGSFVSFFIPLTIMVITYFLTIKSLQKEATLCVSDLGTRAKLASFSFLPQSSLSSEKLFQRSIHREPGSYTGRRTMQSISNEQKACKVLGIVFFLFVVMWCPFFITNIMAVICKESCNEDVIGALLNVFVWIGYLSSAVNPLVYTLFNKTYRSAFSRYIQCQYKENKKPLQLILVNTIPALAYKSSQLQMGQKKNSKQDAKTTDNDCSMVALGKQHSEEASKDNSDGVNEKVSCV
# Sequence of Acetylcholinesterase (P22303 whole entry): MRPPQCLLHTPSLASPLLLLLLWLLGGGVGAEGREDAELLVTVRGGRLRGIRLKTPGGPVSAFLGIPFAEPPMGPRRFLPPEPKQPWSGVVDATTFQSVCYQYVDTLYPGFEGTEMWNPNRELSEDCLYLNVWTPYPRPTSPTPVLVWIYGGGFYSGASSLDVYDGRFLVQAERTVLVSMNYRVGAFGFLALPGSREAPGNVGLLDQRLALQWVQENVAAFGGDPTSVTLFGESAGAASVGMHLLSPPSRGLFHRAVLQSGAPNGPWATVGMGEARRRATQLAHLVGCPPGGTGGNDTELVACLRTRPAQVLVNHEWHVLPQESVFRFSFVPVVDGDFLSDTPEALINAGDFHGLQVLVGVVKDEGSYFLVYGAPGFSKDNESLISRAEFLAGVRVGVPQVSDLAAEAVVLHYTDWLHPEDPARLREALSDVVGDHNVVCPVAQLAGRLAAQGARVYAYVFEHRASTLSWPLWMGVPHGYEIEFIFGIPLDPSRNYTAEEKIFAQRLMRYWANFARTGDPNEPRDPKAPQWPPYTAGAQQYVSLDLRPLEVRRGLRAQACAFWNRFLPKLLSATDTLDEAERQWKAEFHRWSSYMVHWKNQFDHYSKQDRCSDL
# Sequence of Sodium-dependent serotonin transporter (P31645 whole entry): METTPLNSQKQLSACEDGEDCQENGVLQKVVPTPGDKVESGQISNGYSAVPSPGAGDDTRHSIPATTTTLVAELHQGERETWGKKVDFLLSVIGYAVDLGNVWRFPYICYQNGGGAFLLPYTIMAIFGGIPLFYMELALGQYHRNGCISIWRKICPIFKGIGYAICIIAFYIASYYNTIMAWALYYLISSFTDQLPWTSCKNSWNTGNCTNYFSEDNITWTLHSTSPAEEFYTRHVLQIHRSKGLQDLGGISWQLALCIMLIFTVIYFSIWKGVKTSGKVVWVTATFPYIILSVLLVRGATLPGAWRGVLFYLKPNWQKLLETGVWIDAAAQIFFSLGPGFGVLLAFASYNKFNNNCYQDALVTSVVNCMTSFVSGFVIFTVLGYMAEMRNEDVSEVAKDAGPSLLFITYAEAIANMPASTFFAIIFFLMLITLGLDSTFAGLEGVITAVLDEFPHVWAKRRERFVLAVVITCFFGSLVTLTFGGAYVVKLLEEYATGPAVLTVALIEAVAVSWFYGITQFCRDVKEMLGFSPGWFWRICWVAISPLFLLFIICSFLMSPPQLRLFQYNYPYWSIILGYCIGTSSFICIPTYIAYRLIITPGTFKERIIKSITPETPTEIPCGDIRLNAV
# Sequence of 3',5'-cyclic-AMP phosphodiesterase 4A (P27815 whole entry): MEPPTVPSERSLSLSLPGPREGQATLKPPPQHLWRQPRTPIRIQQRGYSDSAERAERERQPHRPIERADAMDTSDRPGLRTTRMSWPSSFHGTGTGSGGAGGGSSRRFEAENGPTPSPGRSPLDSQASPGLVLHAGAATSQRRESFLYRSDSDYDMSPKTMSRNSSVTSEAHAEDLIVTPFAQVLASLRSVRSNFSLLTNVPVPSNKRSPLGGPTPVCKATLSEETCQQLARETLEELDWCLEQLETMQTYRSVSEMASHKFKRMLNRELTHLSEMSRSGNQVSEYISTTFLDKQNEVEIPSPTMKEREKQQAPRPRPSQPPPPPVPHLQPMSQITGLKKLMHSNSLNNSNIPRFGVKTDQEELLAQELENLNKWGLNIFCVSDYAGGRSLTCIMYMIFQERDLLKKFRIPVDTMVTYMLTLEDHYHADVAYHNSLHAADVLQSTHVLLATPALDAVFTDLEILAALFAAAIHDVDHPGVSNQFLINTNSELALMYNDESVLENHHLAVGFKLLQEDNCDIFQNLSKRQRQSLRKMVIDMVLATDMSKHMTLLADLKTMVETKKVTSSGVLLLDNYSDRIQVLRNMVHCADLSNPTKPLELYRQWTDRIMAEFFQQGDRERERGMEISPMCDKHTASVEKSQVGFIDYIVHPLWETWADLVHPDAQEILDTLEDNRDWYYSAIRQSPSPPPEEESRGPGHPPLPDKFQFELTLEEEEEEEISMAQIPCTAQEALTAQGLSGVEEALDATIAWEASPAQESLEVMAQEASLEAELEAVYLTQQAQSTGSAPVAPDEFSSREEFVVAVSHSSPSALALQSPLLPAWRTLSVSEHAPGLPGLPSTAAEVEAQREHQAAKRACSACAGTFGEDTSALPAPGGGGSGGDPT
# Sequence of Histamine H2 receptor (P25021 whole entry): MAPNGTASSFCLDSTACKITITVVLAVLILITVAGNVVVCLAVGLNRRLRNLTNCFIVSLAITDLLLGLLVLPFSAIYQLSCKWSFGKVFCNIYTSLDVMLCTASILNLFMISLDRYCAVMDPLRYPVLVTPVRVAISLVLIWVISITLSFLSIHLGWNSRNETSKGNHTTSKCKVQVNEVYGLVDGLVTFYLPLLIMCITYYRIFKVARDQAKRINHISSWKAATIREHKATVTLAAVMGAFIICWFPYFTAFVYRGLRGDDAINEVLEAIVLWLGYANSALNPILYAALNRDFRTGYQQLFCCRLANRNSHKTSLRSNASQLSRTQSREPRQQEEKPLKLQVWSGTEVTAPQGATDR
# Sequence of 5-hydroxytryptamine receptor 2B (P41595 whole entry): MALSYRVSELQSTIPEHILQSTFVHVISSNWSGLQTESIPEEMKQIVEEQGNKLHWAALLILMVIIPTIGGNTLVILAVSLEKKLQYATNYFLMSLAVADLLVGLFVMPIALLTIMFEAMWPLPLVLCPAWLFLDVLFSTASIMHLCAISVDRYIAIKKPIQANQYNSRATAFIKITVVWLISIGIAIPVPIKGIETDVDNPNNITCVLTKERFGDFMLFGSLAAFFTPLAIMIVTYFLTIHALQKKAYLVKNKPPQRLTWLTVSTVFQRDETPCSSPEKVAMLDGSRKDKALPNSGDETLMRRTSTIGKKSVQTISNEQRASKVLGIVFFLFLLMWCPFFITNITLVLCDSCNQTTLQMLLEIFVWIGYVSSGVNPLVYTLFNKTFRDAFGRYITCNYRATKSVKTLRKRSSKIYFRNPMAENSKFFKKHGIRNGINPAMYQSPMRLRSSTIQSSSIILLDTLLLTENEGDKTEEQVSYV
Structure (SMILES),AC50 (Thromboxane A2 receptor [1]) [µM],AC50 (Histamine H3 receptor [2]) [µM],AC50 [3] [µM],AC50 [4] [µM],AC50 [5] [µM],AC50 [6] [µM],AC50 (Acetylcholinesterase) [µM],AC50 [7] [µM],AC50 (Histamine H2 receptor) [µM],AC50 (Histamine H3 receptor [8]) [µM],AC50 [9] [µM],AC50 [10] [µM],AC50 [11] [µM],AC50 (Thromboxane A2 receptor [12]) [µM],AC50 [13] [µM]
CC(N/C(=N\C#N)Nc1ccncc1)C(C)(C)C (configuration not stated) [PINACIDIL ANHYDROUS],> 30,> 10,> 30,> 30,> 30,> 30,> 30,> 30,,,,,,,
CCC(=O)c1c(O)cc(O)cc1O [FLOPROPIONE],> 30,> 30,> 30,> 30,> 30,> 30,> 30,> 30,,,,,,,
O=C1[C@H](CC[C@H](O)c2ccc(F)cc2)[C@@H](c2ccc(O)cc2)N1c1ccc(F)cc1 [EZETIMIBE],> 30,> 30,> 30,> 30,> 30,> 30,> 30,> 10,,,,,,,
CN(CCOc1ccc(NS(C)(=O)=O)cc1)CCc1ccc(NS(C)(=O)=O)cc1 [DOFETILIDE],> 30,> 30,> 30,> 30,6.73,> 30,13.6,> 30,> 30,> 10,> 30,> 10,> 10,> 30,> 10
CCOC(=O)c1ccc(O)cc1 [ETHYLPARABEN],> 30,> 30,> 30,> 30,> 30,> 30,> 30,> 30,,,,,,,
CC(C(=O)O)c1ccc(N2CC=CC2)c(Cl)c1 (configuration not stated) [PIRPROFEN],> 30,> 30,> 30,> 30,> 30,> 30,> 30,> 30,> 10,> 10,> 30,> 10,> 10,> 30,> 10
CC(C)OC(=O)[C@H](C)N[P@](=O)(OC[C@H]1O[C@@H](n2ccc(=O)[nH]c2=O)[C@](C)(F)[C@@H]1O)Oc1ccccc1 [SOFOSBUVIR],> 30,> 30,> 30,> 30,> 30,> 30,> 30,> 30,,,,,,,
CCO/N=C(\C(=O)N[C@@H]1C(=O)N2C(C(=O)[O-])=C(Sc3nc(-c4cc[n+](C)cc4)cs3)CS[C@H]12)c1nsc(N)n1 [CEFTAROLINE],> 30,> 30,> 30,> 30,> 30,> 30,> 30,> 30,,,,,,,
CCOC(=O)N[C@@H]1CC[C@@H]2[C@@H](C1)C[C@H]1C(=O)O[C@H](C)[C@H]1[C@H]2/C=C/c1ccc(-c2cccc(F)c2)cn1 [VORAPAXAR],> 30,> 10,> 30,> 10,> 30,> 30,> 30,> 30,,,,,,,
COc1cc2c(cc1OC)C(=O)C(CC1CCN(Cc3ccccc3)CC1)C2 (configuration not stated) [DONEPEZIL],> 30,5.2,> 30,> 30,,,,> 30,> 10,2.5,> 30,,8.2,> 30,> 10
